Test results as given in patent US6710168B1, “Glycopeptide antibiotics, combinatorial libraries of glycopeptide antibiotics and methods of producing same” (The Trustees of the University of Princeton, priority 1999, dated 2004).
Values after ≈ are worked out from the molar mass of the structure shown. Like-named read-outs stand apart in the source and are kept apart here.

Assays:
Format in all cases: cell-based
[1] = test system: Enterococcus faecium CL5137, VanA; experiment: MIC susceptibility test; conditions: for MIC: read-out: MIC CL5137
[2] = test system: gentamicin, streptmycin, vancomycin resistant Enterococcus faecalis (ATCC 51299); experiment: microbe, parasite or virus in culture; conditions: for MIC: Enterococcus faecalis, ATCC51299, read-out: MIC VREF; for MIC VREF: Enterococcus faecalis ATCC51299, vancomycin resistance
Experimental: (§1) Evaluation of vancomycin analogs is performed using in vitro susceptibility tests and a time-kill assay. [NCCL Standard, 1993] In susceptibility tests, five strains of bacteria, two of the most important: Staphylococcus aureus and Enterococcus faecalis (both susceptible and resistant strains), and Bacillus cereus are chosen and bacteria viability remaining in each well is evaluated using a colorimetric assay based on the tetrazolium salt 3-(4,5-dimethyl-2-thiazolyl)-2,5-diphenyl-2H tetrazolium bromide (MTT) and minimum inhibitory concentration (MIC) values are determined as μg/mL. [Mosmann, T. (1983); Damour, O., et al. (1992); Mikami, Y., et al. (1994)] This assay gives susceptibility information quickly, efficiently, and clearly.
(§2) All strains [Bacillus cereus (ATCC® 11778), Staphylococcus aureus (ATCC® 29213), Methicillin resistant Staphylococcus aureus (ATCC® 33591), Enterococcus faecalis (ATCC® 29212), and gentamicin, streptmycin, vancomycin resistant Enterococcus faecalis (ATCC® 51299), are purchased from REMEL (Lenexa, Kans.).
(§3) MICs are determined by the microdilution method using 96-well microplates. Samples are suspended with Cation Adjusted (20 to 25 mg of Ca^2+/mL and 10 to […] of Mg^2+) Mueller-Hinton broth (Difco Laboratories, Detroit, Mich.) and are two-fold diluted from 5 μg/mL to […] on microplates (12 step dilution). To each well, which contained 100 μL of cell suspension (10^6 CFU/mL), 100 μL of antibiotic solution is added and the plates are incubated at 37° C. for 24 h. 50 μL of MTT solution (1 mg/mL) is added to each well, then the plates are incubated under the same conditions (incubation time; 30 min for Bacillus cereus, Staphylococcus aureus, and Methicillin resistant Staphylococcus aureus; 2 hours for Enterococcus faecalis and Gentamicin, Streptmycin, Vancomycin Enterococcus faecalis). MTT is a yellow tetrazolium salt that is reduced by mitochondrial enzymes in viable cells to an insoluble blue formazan product. MIC values are evaluated by observing the lowest drug concentration to inhibit bacteria growth.

[3] = test system: Enterococcus faecalis CL5244, VanB; experiment: MIC susceptibility test; conditions: for MIC: read-out: MIC CL5244
Experimental: as §1, §3

[4] = test system: Methicillin resistant Staphylococcus aureus (ATCC 33591); experiment: MIC susceptibility test, microdilution with MTT readout; conditions: for MIC: ATCC 3359 / ATCC 33591 / MRSA, read-out: MIC MRSA
Experimental: as §1, §2, §3

[5] = test system: Staphylococcus aureus (ATCC 29213); experiment: as above
Experimental: as §1, §2, §3

[6] = test system: Bacillus cereus (ATCC 11778); experiment: as above; conditions: for MIC: Bacillus cereus, ATCC11778, read-out: MIC BC; for MIC BC: Bacillus ceres ATCC11778
Experimental: as §1, §2, §3

[7] = test system: Enterococcus faecalis (ATCC 29212); experiment: as above
Experimental: as §1, §2, §3

[8] = Enterococcus faecium CL5137, VanA
[9] = Enterococcus faecalis CL5244, VanB
[10] = Staphylococcus aureus ATCC3359, Methicillin resistance
[11] = Staphylococcus aureus ATCC29213, read-out: MIC SA
[12] = Enterococcus faecalis ATCC29212, read-out: MIC EF
[13] = Staphylococcus aureus ATCC29213
[14] = Enterococcus faecalis ATCC29212

| Structure (SMILES) | MIC [1, 8] [mg/L] | MIC [2] [mg/L] | MIC [3, 9] [mg/L] | MIC [4, 10] [mg/L] | MIC [5, 11] [mg/L] | MIC [6] [mg/L] | MIC [7, 12] [mg/L] | MIC CL5137 [1, 8] | MIC VREF [2] [mg/L] | MIC CL5244 [3, 9] [mg/L] | MIC MRSA [4, 10] | MIC SA [5, 13] | MIC BC [6] [mg/L] | MIC EF [7, 14] [mg/L] | MIC ([1]; Enterococcus faecium) [mg/L] | MIC ([3]; Enterococcus faecalis) [mg/L] | MIC ([4]; Staphylococcus aureus) [mg/L] | MIC ([5]; Staphylococcus aureus, ATCC29213, read-out: MIC SA) [mg/L] | MIC ([7]; Enterococcus faecalis, ATCC29212, read-out: MIC EF) [mg/L] |
| --- | --- | --- | --- | --- | --- | --- | --- | --- | --- | --- | --- | --- | --- | --- | --- | --- | --- | --- | --- |
| CCCCCCCCCCNC1(C)CC(OC2C(Oc3c4cc5cc3Oc3ccc(cc3Cl)[C@@H](O)[C@@H](NC(=O)[C@H](CC(C)C)NC)C(=O)N[C@@H](CC(N)=O)C(=O)N[C@H]5C(=O)NC3C(=O)N[C@H](C(=O)N[C@@H](C(=O)O)c5cc(O)cc(O)c5-c5cc3ccc5O)[C@H](O)c3ccc(c(Cl)c3)O4)OC(CSc3nnc(C)c(O)n3)C(O)C2O)OC(C)C1O (some centres unmarked) [LXXIX, N-Decylvancosamine-glucose-C6-2-thio-6-azathymine Vancomycin] | 25 (≈ 14.6 µM) | 0.63 (≈ 0.367 µM) | 0.6 (≈ 0.35 µM) | 1.3 (≈ 0.758 µM) | 2.5 (≈ 1.46 µM) | 0.63 (≈ 0.367 µM) | 0.32 (≈ 0.187 µM) | – | – | – | – | – | – | – | – | – | – | – | – |
| CCCCCCCCCCNC1(C)CC(OC2C(Oc3c4cc5cc3Oc3ccc(cc3Cl)C(O)C3NC(=O)C(NC(=O)C5NC(=O)C(CC(N)=O)NC(=O)C(NC(=O)C(CC(C)C)NC)C(O)c5ccc(c(Cl)c5)O4)c4ccc(O)c(c4)-c4c(O)cc(O)cc4C(C(=O)O)NC3=O)OC(CNC(=O)c3cnc4ccccc4n3)C(O)C2O)OC(C)C1O (centres unmarked) [LI, Glucose-C6-N-2-quinoxaloyl-vancosamine-N-decyl Vancomycin] | – | – | – | – | – | – | – | 6.3 µg/mL (≈ 3.61 µM) | 1.3 (≈ 0.745 µM) | 0.2 (≈ 0.115 µM) | 5.0< μg/mL | 5.0< μg/mL | 2.5 (≈ 1.43 µM) | 0.63 (≈ 0.361 µM) | – | – | – | – | – |
| CN[C@H](CC(C)C)C(=O)N[C@H]1C(=O)N[C@@H](CC(N)=O)C(=O)N[C@H]2C(=O)N[C@H]3C(=O)N[C@H](C(=O)N[C@H](C(=O)O)c4cc(O)cc(O)c4-c4cc3ccc4O)[C@H](O)c3ccc(c(Cl)c3)Oc3cc2cc(c3OC2OC(CO)C(O)C(O)C2OC2CC(C)(N)C(O)C(C)O2)Oc2ccc(cc2Cl)[C@H]1O (some centres unmarked) [I, vancomycin, reference compound] | – | > 5 | – | – | – | 1 (≈ 0.69 µM) | – | – | – | – | – | – | – | – | 1600 (≈ 1100 µM) | 25 (≈ 17.3 µM) | 1.3 (≈ 0.897 µM) | 1 (≈ 0.69 µM) | 1.3 (≈ 0.897 µM) |
| CN[C@@H](CC(C)C)C(=O)N[C@H]1C(=O)N[C@@H](CC(N)=O)C(=O)N[C@H]2C(=O)NC3C(=O)N[C@H](C(=O)N[C@@H](C(=O)O)c4cc(O)cc(O)c4-c4cc3ccc4O)[C@H](O)c3ccc(c(Cl)c3)Oc3cc2cc(c3OC2OC(CSc3nnnn3-c3ccc(O)cc3)C(O)C(O)C2OC2CC(C)(N)C(O)C(C)O2)Oc2ccc(cc2Cl)[C@H]1O (some centres unmarked) [LXVIII, Glucose-C6-5-thio-1-(4-hydroxyphenyl)-1H-tetrazole Vancomycin] | > 50 | > 5 | 13 (≈ 8 µM) | 2.5 (≈ 1.54 µM) | 2.5 (≈ 1.54 µM) | 1.3 (≈ 0.8 µM) | 2.5 (≈ 1.54 µM) | – | – | – | – | – | – | – | – | – | – | – | – |
| CN[C@@H](CC(C)C)C(=O)N[C@H]1C(=O)N[C@@H](CC(N)=O)C(=O)N[C@H]2C(=O)NC3C(=O)N[C@H](C(=O)N[C@@H](C(=O)O)c4cc(O)cc(O)c4-c4cc3ccc4O)[C@H](O)c3ccc(c(Cl)c3)Oc3cc2cc(c3OC2OC(CN=[N+]=[N-])C(O)C(O)C2OC2CC(C)(N)C(O)C(C)O2)Oc2ccc(cc2Cl)[C@H]1O (some centres unmarked) [XLVI, Glucose-C6-azide Vancomycin] | > 50 | 2.5 (≈ 1.7 µM) | 25 (≈ 17 µM) | 1.3 (≈ 0.882 µM) | 0.63 (≈ 0.427 µM) | 1 (≈ 0.678 µM) | 1.3 (≈ 0.882 µM) | – | – | – | – | – | – | – | – | – | – | – | – |
| CN[C@@H](CC(C)C)C(=O)N[C@H]1C(=O)N[C@@H](CC(N)=O)C(=O)N[C@H]2C(=O)NC3C(=O)N[C@H](C(=O)N[C@@H](C(=O)O)c4cc(O)cc(O)c4-c4cc3ccc4O)[C@H](O)c3ccc(c(Cl)c3)Oc3cc2cc(c3OC2OC(CNN)C(O)C(O)C2OC2CC(C)(N)C(O)C(C)O2)Oc2ccc(cc2Cl)[C@H]1O (some centres unmarked) [XLIV, Glucose-C6-hydrazine Vancomycin] | > 50 | 2.5 (≈ 1.71 µM) | 50 (≈ 34.2 µM) | 1.3 (≈ 0.888 µM) | 0.63 (≈ 0.431 µM) | 1.3 (≈ 0.888 µM) | 1.3 (≈ 0.888 µM) | – | – | – | – | – | – | – | – | – | – | – | – |
| CN[C@@H](CC(C)C)C(=O)N[C@H]1C(=O)N[C@@H](CC(N)=O)C(=O)N[C@H]2C(=O)NC3C(=O)N[C@H](C(=O)N[C@@H](C(=O)O)c4cc(O)cc(O)c4-c4cc3ccc4O)[C@H](O)c3ccc(c(Cl)c3)Oc3cc2cc(c3OC2OC(CSc3nc(N)cc(O)n3)C(O)C(O)C2OC2CC(C)(N)C(O)C(C)O2)Oc2ccc(cc2Cl)[C@H]1O (some centres unmarked) [LXIII, Glucose-C6-2-thio-4-amino-6-hydroxypyrimidine Vancomycin] | > 50 | > 5 | 6.3 (≈ 4 µM) | > 5 | 5 (≈ 3.18 µM) | 5 (≈ 3.18 µM) | 2.5 (≈ 1.59 µM) | – | – | – | – | – | – | – | – | – | – | – | – |
| CNC(CC(C)C)C(=O)NC1C(=O)NC(CC(N)=O)C(=O)NC2C(=O)NC3C(=O)NC(C(=O)NC(C(=O)O)c4cc(O)cc(O)c4-c4cc3ccc4O)C(O)c3ccc(c(Cl)c3)Oc3cc2cc(c3OC2OC(CSc3nc(N)n[nH]3)C(O)C(O)C2OC2CC(C)(N)C(O)C(C)O2)Oc2ccc(cc2Cl)C1O (centres unmarked) [LVI, Glucose-C6-3-amino-5-mercapto-1,2,4-triazole Vancomycin] | – | – | – | – | – | – | – | 50< μg/mL | 0.63 (≈ 0.407 µM) | 1.6 (≈ 1.03 µM) | 0.63 µg/mL (≈ 0.407 µM) | 0.48 µg/mL (≈ 0.31 µM) | 1.0 (≈ 0.646 µM) | 0.63 (≈ 0.407 µM) | – | – | – | – | – |
| CN[C@@H](CC(C)C)C(=O)N[C@H]1C(=O)N[C@@H](CC(N)=O)C(=O)N[C@H]2C(=O)NC3C(=O)N[C@H](C(=O)N[C@@H](C(=O)O)c4cc(O)cc(O)c4-c4cc3ccc4O)[C@H](O)c3ccc(c(Cl)c3)Oc3cc2cc(c3OC2OC(CSc3nnc(C)c(O)n3)C(O)C(O)C2OC2CC(C)(NCc3ccc(-c4ccc(Cl)cc4)cc3)C(O)C(C)O2)Oc2ccc(cc2Cl)[C@H]1O (some centres unmarked) [LXXXVI, N-4-(4-Chlorophenyl)benzylvancosamine-glucose-C6-2-thio-6-azathymine Vancomycin] | 3.2 (≈ 1.8 µM) | 0.16 (≈ 0.0901 µM) | 0.4 (≈ 0.225 µM) | 1 (≈ 0.563 µM) | 1 (≈ 0.563 µM) | 0.32 (≈ 0.18 µM) | 0.12 (≈ 0.0676 µM) | – | – | – | – | – | – | – | – | – | – | – | – |
| CN[C@@H](CC(C)C)C(=O)N[C@H]1C(=O)N[C@@H](CC(N)=O)C(=O)N[C@H]2C(=O)NC3C(=O)N[C@H](C(=O)N[C@@H](C(=O)O)c4cc(O)cc(O)c4-c4cc3ccc4O)[C@H](O)c3ccc(c(Cl)c3)Oc3cc2cc(c3OC2OC(CSc3nc4cc(OC)ccc4[nH]3)C(O)C(O)C2OC2CC(C)(N)C(O)C(C)O2)Oc2ccc(cc2Cl)[C@H]1O (some centres unmarked) [LXV, Glucose-C6-2-thio-5-methoxybenzimidazole Vancomycin] | > 50 | 2.5 (≈ 1.55 µM) | 13 (≈ 8.07 µM) | 2.5 (≈ 1.55 µM) | 1.9 (≈ 1.18 µM) | 0.63 (≈ 0.391 µM) | 0.63 (≈ 0.391 µM) | – | – | – | – | – | – | – | – | – | – | – | – |
| CNC(CC(C)C)C(=O)NC1C(=O)NC(CC(N)=O)C(=O)NC2C(=O)NC3C(=O)NC(C(=O)NC(C(=O)O)c4cc(O)cc(O)c4-c4cc3ccc4O)C(O)c3ccc(c(Cl)c3)Oc3cc2cc(c3OC2OC(CN=P(c3ccccc3)(c3ccccc3)c3ccccc3)C(O)C(O)C2OC2CC(C)(NCc3ccc(-c4ccc(Cl)cc4)cc3)C(O)C(C)O2)Oc2ccc(cc2Cl)C1O.O=C(O)C(F)(F)F (centres unmarked) [CXXXVI, N-4-(4-Chlorophenyl)benzyl Vancosamine-glucose-C6-iminotriphenylphosphorane Vancomycin] | – | – | – | – | – | – | – | 5.0 µg/mL | 0.16 | 0.32 | 0.32 µg/mL | 1.3 µg/mL | 1.3 | 0.32 | – | – | – | – | – |
